The NIST ThermoML archive (doi:10.1021/je800998u)
± gives the expanded uncertainty stated by the source.

Experiment: molar heat capacity at constant pressure
Settings: 101.33 kPa, Crystal 2, Small (less than 1 g) adiabatic calorimetry

CC(C)COCC(C)C [diisobutyl ether]
Settings	molar heat capacity at constant pressure [J/K/mol]
8.82 K	1.718 ± 0.05
9.09 K	1.873 ± 0.053
9.35 K	2.044 ± 0.055
9.61 K	2.275 ± 0.059
9.86 K	2.429 ± 0.061
10 K	2.519 ± 0.064
10.18 K	2.65 ± 0.064
10.58 K	2.937 ± 0.068
10.96 K	3.313 ± 0.074
11.34 K	3.685 ± 0.079
11.75 K	4.078 ± 0.085
12.13 K	4.434 ± 0.089
12.5 K	4.803 ± 0.094
12.88 K	5.199 ± 0.099
13.25 K	5.584 ± 0.1
13.61 K	6.04 ± 0.11
13.98 K	6.505 ± 0.12
14.34 K	6.941 ± 0.12
14.71 K	7.42 ± 0.13
15 K	7.709 ± 0.13
15.07 K	7.816 ± 0.13
15.44 K	8.198 ± 0.14
15.8 K	8.608 ± 0.14
16.15 K	9.109 ± 0.15
16.51 K	9.706 ± 0.15
16.86 K	10.12 ± 0.16
17.21 K	10.68 ± 0.16
17.57 K	11.14 ± 0.17
17.92 K	11.79 ± 0.17
18.28 K	12.13 ± 0.18
18.63 K	12.7 ± 0.18
18.98 K	13.24 ± 0.19
19.33 K	13.71 ± 0.19
19.68 K	14.26 ± 0.2
20 K	14.73 ± 0.2
20.03 K	14.7 ± 0.2
20.68 K	15.81 ± 0.21
21.44 K	17.01 ± 0.22
22.21 K	18.14 ± 0.22
22.97 K	19.36 ± 0.23
23.73 K	20.47 ± 0.24
24.49 K	21.77 ± 0.24
25 K	22.61 ± 0.25
25.25 K	22.85 ± 0.25
26 K	24.23 ± 0.26
26.76 K	25.53 ± 0.26
27.53 K	26.72 ± 0.26
28.29 K	27.81 ± 0.26
29.04 K	29.05 ± 0.27
29.8 K	30 ± 0.26
30 K	30.39 ± 0.25
30.56 K	31.03 ± 0.26
31.31 K	32.45 ± 0.26
32.07 K	33.45 ± 0.27
32.84 K	34.56 ± 0.27
33.59 K	35.68 ± 0.28
34.35 K	36.74 ± 0.28
35 K	37.65 ± 0.29
35.1 K	37.87 ± 0.29
35.86 K	38.82 ± 0.29
36.61 K	39.8 ± 0.3
37.36 K	40.72 ± 0.3
38.11 K	42.01 ± 0.31
38.86 K	43.03 ± 0.32
39.62 K	44.08 ± 0.32
40 K	44.52 ± 0.32
40.37 K	45.1 ± 0.33
41.12 K	46.17 ± 0.33
41.87 K	47.05 ± 0.34
42.62 K	47.91 ± 0.34
43.37 K	48.99 ± 0.35
44.12 K	49.85 ± 0.35
44.88 K	50.69 ± 0.35
45 K	51.04 ± 0.36
45.63 K	51.79 ± 0.36
46.38 K	52.94 ± 0.37
47.13 K	53.72 ± 0.37
47.88 K	54.52 ± 0.37
48.63 K	55.63 ± 0.38
49.38 K	56.47 ± 0.38
50 K	57.22 ± 0.39
50.12 K	57.39 ± 0.39
50.87 K	58.27 ± 0.39
51.62 K	59.17 ± 0.4
52.36 K	60.07 ± 0.4
53.11 K	61.06 ± 0.41
53.85 K	62.18 ± 0.41
54.6 K	63.09 ± 0.42
55 K	63.54 ± 0.42
55.34 K	63.95 ± 0.42
56.09 K	64.95 ± 0.43
56.83 K	66.04 ± 0.43
57.57 K	67.47 ± 0.44
59.06 K	68.36 ± 0.44
59.81 K	69.16 ± 0.45
60 K	69.69 ± 0.45
60.55 K	69.92 ± 0.45
61.29 K	71.03 ± 0.46
62.03 K	72.13 ± 0.46
62.77 K	72.85 ± 0.47
63.51 K	73.59 ± 0.47
64.25 K	74.59 ± 0.47
64.99 K	75.44 ± 0.48
65 K	75.34 ± 0.48
65.73 K	76.13 ± 0.48
66.47 K	76.73 ± 0.48
67.21 K	77.8 ± 0.49
67.95 K	78.53 ± 0.49
68.69 K	79.4 ± 0.5
69.43 K	79.64 ± 0.5
70 K	80.28 ± 0.5
70.16 K	80.5 ± 0.5
71.06 K	80.99 ± 0.51
72.11 K	81.81 ± 0.51
73.16 K	83.2 ± 0.52
74.21 K	84.22 ± 0.52
75 K	84.76 ± 0.52
75.26 K	84.92 ± 0.53
76.31 K	85.85 ± 0.53
77.36 K	86.85 ± 0.54
77.99 K	88.21 ± 0.54
78.41 K	87.75 ± 0.54
79.13 K	89.1 ± 0.55
79.45 K	89.04 ± 0.55
80 K	89.65 ± 0.55
80.18 K	90.02 ± 0.55
80.5 K	89.99 ± 0.55
81.22 K	91.36 ± 0.56
81.55 K	90.95 ± 0.56
82.26 K	92.28 ± 0.56
82.59 K	92.15 ± 0.56
83.3 K	92.88 ± 0.56
83.63 K	93.23 ± 0.57
84.34 K	93.83 ± 0.57
84.68 K	93.86 ± 0.57
85 K	94.92 ± 0.58
85.37 K	94.92 ± 0.58
85.72 K	96.14 ± 0.58
86.41 K	96.9 ± 0.58
87.44 K	97.86 ± 0.59
88.48 K	98.97 ± 0.59
89.51 K	100 ± 0.6
90 K	100.3 ± 0.6
90.55 K	101.18 ± 0.61
91.58 K	101.87 ± 0.61
92.61 K	102.82 ± 0.61
93.65 K	104.36 ± 0.62
94.68 K	104.93 ± 0.62
95 K	105.3 ± 0.6
95.71 K	105.7 ± 0.62
96.75 K	106.52 ± 0.63
97.78 K	107.57 ± 0.63
98.81 K	108.62 ± 0.63
99.84 K	109.08 ± 0.64
100 K	109.7 ± 0.6
100.86 K	110.59 ± 0.64
101.89 K	111.96 ± 0.65
102.92 K	112.24 ± 0.65
103.95 K	113.24 ± 0.65
104.98 K	114.44 ± 0.66
106.01 K	115.08 ± 0.66
107.04 K	116.13 ± 0.66
108.06 K	116.43 ± 0.67
109.09 K	117.54 ± 0.67
110 K	118.6 ± 0.7
110.11 K	118.56 ± 0.67
111.14 K	119.31 ± 0.68
112.16 K	120.35 ± 0.68
113.18 K	121.34 ± 0.69
114.21 K	122.79 ± 0.69
115.23 K	123.92 ± 0.7
116.25 K	124.47 ± 0.7
117.27 K	125.86 ± 0.7
118.29 K	126.81 ± 0.71
119.32 K	127.51 ± 0.71
120 K	128 ± 0.7
120.34 K	128.32 ± 0.71
121.36 K	129.04 ± 0.72
122.38 K	130.15 ± 0.72
123.4 K	131.15 ± 0.72
124.42 K	131.86 ± 0.73
125.44 K	132.59 ± 0.73
126.46 K	133.8 ± 0.74
127.47 K	134.67 ± 0.74
128.49 K	135.82 ± 0.74
129.51 K	137.05 ± 0.75
130 K	137.1 ± 0.8
130.53 K	137.63 ± 0.75
131.54 K	138.57 ± 0.75
132.56 K	139.45 ± 0.76
133.57 K	140.23 ± 0.76
134.59 K	141.56 ± 0.77
135.6 K	142.61 ± 0.77
136.62 K	143.17 ± 0.77
137.63 K	144.11 ± 0.78
138.64 K	145.82 ± 0.78
139.66 K	146.49 ± 0.79
140 K	147 ± 0.8
